{
  "source": "patent US20140296343A1",
  "about": "“NON-PEPTIDE BDNF NEUROTROPHIN MIMETICS” (PharmatrophiX, Inc., priority 2010, published 2014)",
  "molecules": {"B1": {"name": "BDNF: Brain Derived Neurotrophic Factor, a neurotrophin; native ligand of TrkB (protein, UniProt P23560 19-247, looked up)", "Neurotrophic factor BDNF …": "APMKEANIRGQGGLAYPGVRTHGTLESVNGPKAGSRGLTSLADTFEHVIEELLDEDQKVRPNEENNKDADLYTSRVMLSSQVPLEPPLLFLLEEYKNYLDAANMSMRVRRHSDPARRGELSVCDSISEWVTAADKKTAVDMSGGTVTVLEKVPVSKGQLKQYFYETKCNPMGYTKEGCRGIDKRHWNSQCRTTQSYVRALTMDSKKRIGWRFIRIDTSCVCTLTIKRGR"}},
  "key": {"[1]": {"system": "mouse E16 striatal neurons", "conditions": "cited from earlier work"}, "[2]": {"system": "E16-17 hippocampal neurons", "assay": "Aβ-induced neuronal degeneration (Alzheimer's disease model)", "format": "cell-based", "conditions": "for prevention of Aβ-induced degeneration: Aβ1-42 oligomer 10 μM", "procedure": "The ability of the BDNF mimetics to prevent Aβ-induced neuronal degeneration can be tested as a model of the compounds' ability to treat Alzheimer's disease. E16-17 hippocampal neurons are matured for 6 days and then incubated for 3 days with the indicated combinations of Aβ oligomer preparations (Dahigren, K. N., et al. (2002) J Biol Chem 277, 32046-32053), neurotrophins and neurotrophin mimetics. Following the three day incubation, neuronal survival is assessed using standard morphological criteria (Massa, S. M., et al. (2006) J Neurosci 26, 5288-5300).\nAddition of Aβ1-42 oligomer (10 μM) but not control AβScrambled oligomer (10 μM) results in an approximate 40% reduction in neuronal survival. […] The effectiveness of BDNF mimetics of the present invention can be compared to BDNF in blocking Aβ-induced degeneration."}, "[3]": {"biological_target": "T1, TrkB (Homo sapiens, UniProt Q16620)", "T1 construct": "expressed in transfected cells; host or cells: NIH3T3 (mouse fibroblasts, no native Trk receptors)", "T1 sequence (Q16620 32-822)": "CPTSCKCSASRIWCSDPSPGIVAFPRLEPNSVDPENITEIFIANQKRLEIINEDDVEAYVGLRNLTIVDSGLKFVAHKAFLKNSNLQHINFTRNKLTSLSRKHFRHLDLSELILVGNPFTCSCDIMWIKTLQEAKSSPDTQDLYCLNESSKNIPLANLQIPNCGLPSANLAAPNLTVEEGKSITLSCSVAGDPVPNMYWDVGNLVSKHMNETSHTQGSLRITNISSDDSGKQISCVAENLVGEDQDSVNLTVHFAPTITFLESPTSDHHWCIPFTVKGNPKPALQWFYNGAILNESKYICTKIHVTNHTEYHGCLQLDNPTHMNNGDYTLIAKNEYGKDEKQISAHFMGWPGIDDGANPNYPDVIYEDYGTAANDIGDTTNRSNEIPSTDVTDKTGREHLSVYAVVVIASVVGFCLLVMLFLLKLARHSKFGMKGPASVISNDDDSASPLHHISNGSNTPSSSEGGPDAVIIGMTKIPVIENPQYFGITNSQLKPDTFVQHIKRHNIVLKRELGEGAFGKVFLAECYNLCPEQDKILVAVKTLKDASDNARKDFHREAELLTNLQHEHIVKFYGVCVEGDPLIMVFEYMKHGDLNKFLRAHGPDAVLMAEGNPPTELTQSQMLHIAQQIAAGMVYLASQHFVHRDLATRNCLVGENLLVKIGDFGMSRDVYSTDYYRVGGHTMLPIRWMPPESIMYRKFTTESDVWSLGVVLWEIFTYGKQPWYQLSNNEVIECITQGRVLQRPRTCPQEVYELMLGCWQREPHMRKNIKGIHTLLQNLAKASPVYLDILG", "assay": "Trk activation by Western blot of phospho-Trk in NIH3T3 cells expressing TrkB", "format": "cell-based", "from_the_text": "(§1) To assess the interactions of the BDNF loop 2 mimetic compounds with TrkB receptors, the ability of the compounds of the invention to activate TrkA, TrkB, and TrkC is compared in a series of Western blotting experiments. […] Western blots were used to detect phospho-Trk which is a standard method for detecting Trk activation."}, "[4]": {"biological_target": "T2, TrkC (Homo sapiens, UniProt Q16288)", "T2 construct": "expressed in transfected cells; host or cells: NIH3T3 (mouse fibroblasts, no native Trk receptors)", "T2 sequence (Q16288 32-839)": "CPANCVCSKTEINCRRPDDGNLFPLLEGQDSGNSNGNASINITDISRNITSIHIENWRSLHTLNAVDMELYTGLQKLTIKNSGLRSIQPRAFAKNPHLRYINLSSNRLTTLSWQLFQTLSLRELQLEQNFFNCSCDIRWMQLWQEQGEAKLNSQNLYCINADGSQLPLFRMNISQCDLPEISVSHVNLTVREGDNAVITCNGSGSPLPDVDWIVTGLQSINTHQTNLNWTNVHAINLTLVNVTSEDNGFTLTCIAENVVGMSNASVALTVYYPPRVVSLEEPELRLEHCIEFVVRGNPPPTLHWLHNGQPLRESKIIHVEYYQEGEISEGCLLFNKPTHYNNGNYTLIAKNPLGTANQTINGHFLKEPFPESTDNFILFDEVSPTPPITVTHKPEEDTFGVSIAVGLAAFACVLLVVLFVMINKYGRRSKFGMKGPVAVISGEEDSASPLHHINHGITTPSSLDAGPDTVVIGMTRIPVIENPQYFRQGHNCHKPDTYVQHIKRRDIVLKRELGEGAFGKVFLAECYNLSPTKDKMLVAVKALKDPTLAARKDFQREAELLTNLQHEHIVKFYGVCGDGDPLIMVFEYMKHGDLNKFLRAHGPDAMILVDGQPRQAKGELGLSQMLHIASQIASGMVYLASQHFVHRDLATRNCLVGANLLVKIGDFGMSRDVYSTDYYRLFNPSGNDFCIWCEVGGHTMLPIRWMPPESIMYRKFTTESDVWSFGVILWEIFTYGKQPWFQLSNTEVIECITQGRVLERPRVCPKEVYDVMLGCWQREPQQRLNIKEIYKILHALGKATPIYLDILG", "assay": "Trk activation by Western blot of phospho-Trk in NIH3T3 cells expressing TrkC", "format": "cell-based", "procedure": "as §1\nA measurement of NIH3T3 cells expressing TrkC can also be used to evaluate the compounds of the invention. Total amount of TrkC present is determined by probing with anti-TrkC antibodies."}, "[5]": {"biological_target": "T3, TrkA (Homo sapiens, UniProt P04629)", "T3 construct": "expressed in transfected cells; host or cells: NIH3T3 (mouse fibroblasts, no native Trk receptors)", "T3 sequence (P04629 33-796)": "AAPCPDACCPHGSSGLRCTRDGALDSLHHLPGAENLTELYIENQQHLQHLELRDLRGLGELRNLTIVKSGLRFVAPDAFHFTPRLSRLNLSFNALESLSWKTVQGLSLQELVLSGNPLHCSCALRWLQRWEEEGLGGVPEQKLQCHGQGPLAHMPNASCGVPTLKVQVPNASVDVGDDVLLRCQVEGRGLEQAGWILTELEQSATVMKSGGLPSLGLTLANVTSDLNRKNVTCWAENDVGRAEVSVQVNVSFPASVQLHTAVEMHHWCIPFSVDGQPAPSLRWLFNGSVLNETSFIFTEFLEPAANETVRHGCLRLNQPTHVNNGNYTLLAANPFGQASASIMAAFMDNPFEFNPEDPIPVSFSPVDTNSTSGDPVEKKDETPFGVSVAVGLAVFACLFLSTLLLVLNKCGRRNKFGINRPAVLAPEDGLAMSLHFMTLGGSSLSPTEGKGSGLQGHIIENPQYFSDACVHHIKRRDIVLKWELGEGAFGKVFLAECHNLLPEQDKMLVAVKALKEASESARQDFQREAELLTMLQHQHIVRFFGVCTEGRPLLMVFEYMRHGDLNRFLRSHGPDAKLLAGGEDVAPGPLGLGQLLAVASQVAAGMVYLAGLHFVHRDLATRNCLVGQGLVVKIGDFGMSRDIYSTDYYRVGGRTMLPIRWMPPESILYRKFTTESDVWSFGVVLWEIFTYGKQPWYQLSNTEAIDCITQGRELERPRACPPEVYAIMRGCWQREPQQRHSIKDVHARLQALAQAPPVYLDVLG", "assay": "Trk activation by Western blot of phospho-Trk in NIH3T3 cells expressing TrkA", "format": "cell-based", "from_the_text": "as §1"}},
  "data": [
    {"molecule": "COC(=O)[C@@]1(O)C[C@H]2O[C@]1(C)n1c3ccccc3c3c4c(c5c6ccccc6n2c5c31)C(=O)NC4", "note": "[Compound K252a]", "values": [
      {"measurement": "effect on quinolinic acid-induced death", "setting": "[1]; K252a alone", "result": "no effect"},
      {"measurement": "effect on the ability of BDNF to prevent quinolinic acid-induced death", "setting": "[1]; K252a with BDNF", "result": "blocks the ability of BDNF to prevent death"}
    ]},
    {"molecule": "CC[C@H](C)[C@H](N)C(=O)NCCN1CCOCC1", "note": "[LM11A-31, reference compound]", "values": [
      {"measurement": "prevention of Aβ-induced degeneration", "setting": "[2]; 3 day incubation", "result": "blocks Aβ-induced degeneration"}
    ]},
    {"molecule": "Aβ1-42 oligomer: amyloid-β 1-42 oligomer preparation used to induce neuronal degeneration [reference compound]", "values": [
      {"measurement": "reduction in neuronal survival", "setting": "[2]; 10 μM, 3 day incubation", "result": "~40", "unit": "%"}
    ]},
    {"molecule": "NGF: Nerve Growth Factor, a neurotrophin; native ligand of TrkA", "values": [
      {"measurement": "activation of TrkB (Trk phosphorylation, anti-TrkY490)", "setting": "[3]", "result": "do not activate TrkB"},
      {"measurement": "prevention of Aβ-induced degeneration", "setting": "[2]; 3 day incubation", "result": "fails to prevent Aβ-induced degeneration"},
      {"measurement": "effect on LM11A-31 blocking of Aβ-induced degeneration", "setting": "[2]; NGF together with LM11A-31", "result": "blocked"}
    ]},
    {"molecule": "NT-3: Neurotrophin-3; native ligand of TrkC", "values": [
      {"measurement": "phosphorylation of Trk in TrkC-expressing cells", "setting": "[4]", "result": "promotes the phosphorylation of Trk"}
    ]},
    {"molecule": "B1", "values": [
      {"measurement": "activation of TrkB (Trk phosphorylation, anti-TrkY490)", "setting": "[3]", "result": "activate TrkB"},
      {"measurement": "activation of TrkA (Trk phosphorylation)", "setting": "[5]", "result": "does not"},
      {"measurement": "phosphorylation of Trk in TrkC-expressing cells", "setting": "[4]", "result": "do not"},
      {"measurement": "prevention of quinolinic acid-induced death", "setting": "[1]; previous work", "result": "can prevent quinolinic acid-induced death"}
    ]}
  ]
}
